Measurements reported in paper PMC9532703, “A novel small molecule RK-019 inhibits FGFR2-amplification gastric cancer cell proliferation and induces apoptosis in vitro and in vivo” (Frontiers in Pharmacology, 2022).

Columns and labels:
Experiment in all cases: Kinase selectivity panel
Assay type in all cases: biochemical
PKBβ(h) = molecular target: T1, PKBβ(h) (Homo sapiens, UniProt P31751); settings: read-out: Inhibition(%) @ 1 µM RK-019
T1 construct: purchased Eurofins Discovery Services (KinaseProfiler)
Method: (§1) Median-inhibitory concentration (IC50) and inhibition ratio of kinases by RK-019 was assessed by Eurofins Discovery Services (Dundee, United Kingdom) using the ATP-site competition binding assay in vitro. Firstly, gradient concentration of RK-019 against FGFRs, including FGFR1, FGFR2, FGFR3, and FGFR4, were tested. IC50 value was calculate by the GraphPad Prism software (v8.4.3, GraphPad Software, California, United States). Then, to measure the selectivity prolife of RK-019, a panel of 422 recombinant human kinases was screened at a concentration of 1 µM RK-019. Kinase MAP was drawn by webtools from Cell Signaling Technology, Inc. (www.cellsignal.com).

TrkB(h) = molecular target: T2, TrkB(h) (Homo sapiens, UniProt Q16620); settings: read-out: Inhibition(%) @ 1 µM RK-019
T2 construct: purchased Eurofins Discovery Services (KinaseProfiler)
Method: as §1

Hck(h) activated = molecular target: T3, Hck(h) activated (Homo sapiens, UniProt P08631); settings: read-out: Inhibition(%) @ 1 µM RK-019
T3 construct: purchased Eurofins Discovery Services (KinaseProfiler)
Method: as §1

PhKγ2(h) = molecular target: T4, PhKγ2(h) (Homo sapiens, UniProt P15735); settings: read-out: Inhibition(%) @ 1 µM RK-019
T4 construct: purchased Eurofins Discovery Services (KinaseProfiler)
Method: as §1

ALK(h) = molecular target: T5, ALK(h) (Homo sapiens, UniProt Q9UM73); settings: read-out: Inhibition(%) @ 1 µM RK-019
T5 construct: purchased Eurofins Discovery Services (KinaseProfiler)
Method: as §1

TLK1(h) = molecular target: T6, TLK1(h) (Homo sapiens, UniProt Q9UKI8); settings: read-out: Inhibition(%) @ 1 µM RK-019
T6 construct: purchased Eurofins Discovery Services (KinaseProfiler)
Method: as §1

MAPK2(m) = molecular target: T7, MAPK2(m) (Mus musculus, UniProt P63085); settings: read-out: Inhibition(%) @ 1 µM RK-019
T7 construct: purchased Eurofins Discovery Services (KinaseProfiler)
Method: as §1

PDGFRβ(h) = molecular target: T8, PDGFRβ(h) (Homo sapiens, UniProt P09619); settings: read-out: Inhibition(%) @ 1 µM RK-019
T8 construct: purchased Eurofins Discovery Services (KinaseProfiler)
Method: as §1

GRK3(h) = molecular target: T9, GRK3(h) (Homo sapiens, UniProt P35626); settings: read-out: Inhibition(%) @ 1 µM RK-019
T9 construct: purchased Eurofins Discovery Services (KinaseProfiler)
Method: as §1

GCN2(h) = molecular target: T10, GCN2(h) (Homo sapiens, UniProt Q9P2K8); settings: read-out: Inhibition(%) @ 1 µM RK-019
T10 construct: purchased Eurofins Discovery Services (KinaseProfiler)
Method: as §1

MKK4(m) = molecular target: T11, MKK4(m) (Mus musculus, UniProt P47809); settings: read-out: Inhibition(%) @ 1 µM RK-019
T11 construct: purchased Eurofins Discovery Services (KinaseProfiler)
Method: as §1

[1] = molecular target: T12, PI3 Kinase (p110a(E545K)/p85a)(h) (Homo sapiens, UniProt P42336, E545K); settings: read-out: Inhibition(%) @ 1 µM RK-019
T12 construct: purchased Eurofins Discovery Services (KinaseProfiler)
Method: as §1

[2] = molecular target: T13, PI3 Kinase (p110a(E545K)/p85a)(m) (Mus musculus, UniProt P42337, E545K); settings: read-out: Inhibition(%) @ 1 µM RK-019
T13 construct: purchased Eurofins Discovery Services (KinaseProfiler)
Method: as §1

DRAK1(h) = molecular target: T14, DRAK1(h) (Homo sapiens, UniProt Q9UEE5); settings: read-out: Inhibition(%) @ 1 µM RK-019
T14 construct: purchased Eurofins Discovery Services (KinaseProfiler)
Method: as §1

TYK2(h) = molecular target: T15, TYK2(h) (Homo sapiens, UniProt P29597); settings: read-out: Inhibition(%) @ 1 µM RK-019
T15 construct: purchased Eurofins Discovery Services (KinaseProfiler)
Method: as §1

PKCη(h) = molecular target: T16, PKCη(h) (Homo sapiens, UniProt P24723); settings: read-out: Inhibition(%) @ 1 µM RK-019
T16 construct: purchased Eurofins Discovery Services (KinaseProfiler)
Method: as §1

Src(T341M)(h) = molecular target: T17, Src(T341M)(h) (Homo sapiens, UniProt P12931, T341M); settings: read-out: Inhibition(%) @ 1 µM RK-019
T17 construct: purchased Eurofins Discovery Services (KinaseProfiler)
Method: as §1

PDGFRα(h) = molecular target: T18, PDGFRα(h) (Homo sapiens, UniProt P16234); settings: read-out: Inhibition(%) @ 1 µM RK-019
T18 construct: purchased Eurofins Discovery Services (KinaseProfiler)
Method: as §1

NEK1(h) = molecular target: T19, NEK1(h) (Homo sapiens, UniProt Q96PY6); settings: read-out: Inhibition(%) @ 1 µM RK-019
T19 construct: purchased Eurofins Discovery Services (KinaseProfiler)
Method: as §1

DYRK3(h) = molecular target: T20, DYRK3(h) (Homo sapiens, UniProt O43781); settings: read-out: Inhibition(%) @ 1 µM RK-019
T20 construct: purchased Eurofins Discovery Services (KinaseProfiler)
Method: as §1

TNIK(h) = molecular target: T21, TNIK(h) (Homo sapiens, UniProt Q9UKE5); settings: read-out: Inhibition(%) @ 1 µM RK-019
T21 construct: purchased Eurofins Discovery Services (KinaseProfiler)
Method: as §1

Abl(Y253F)(h) = molecular target: T22, Abl(Y253F)(h) (Homo sapiens, UniProt P00519, Y253F); settings: read-out: Inhibition(%) @ 1 µM RK-019
T22 construct: purchased Eurofins Discovery Services (KinaseProfiler)
Method: as §1

PAK6(h) = molecular target: T23, PAK6(h) (Homo sapiens, UniProt Q9NQU5); settings: read-out: Inhibition(%) @ 1 µM RK-019
T23 construct: purchased Eurofins Discovery Services (KinaseProfiler)
Method: as §1

cKit(D816H)(h) = molecular target: T24, cKit(D816H)(h) (Homo sapiens, UniProt P10721, D816H); settings: read-out: Inhibition(%) @ 1 µM RK-019
T24 construct: purchased Eurofins Discovery Services (KinaseProfiler)
Method: as §1

Syk(h) = molecular target: T25, Syk(h) (Homo sapiens, UniProt P43405); settings: read-out: Inhibition(%) @ 1 µM RK-019
T25 construct: purchased Eurofins Discovery Services (KinaseProfiler)
Method: as §1

Flt4(h) = molecular target: T26, Flt4(h) (Homo sapiens, UniProt P35916)
T26 construct: purchased Eurofins Discovery Services (KinaseProfiler)
Method: as §1

MLCK(h) = molecular target: T27, MLCK(h) (Homo sapiens, UniProt Q15746); settings: read-out: Inhibition(%) @ 1 µM RK-019
T27 construct: purchased Eurofins Discovery Services (KinaseProfiler)
Method: as §1

SGK(h) = molecular target: T28, SGK(h) (Homo sapiens, UniProt O00141); settings: read-out: Inhibition(%) @ 1 µM RK-019
T28 construct: purchased Eurofins Discovery Services (KinaseProfiler)
Method: as §1

GRK7(h) = molecular target: T29, GRK7(h) (Homo sapiens, UniProt Q8WTQ7); settings: read-out: Inhibition(%) @ 1 µM RK-019
T29 construct: purchased Eurofins Discovery Services (KinaseProfiler)
Method: as §1

Fer(h) = molecular target: T30, Fer(h) (Homo sapiens, UniProt P16591); settings: read-out: Inhibition(%) @ 1 µM RK-019
T30 construct: purchased Eurofins Discovery Services (KinaseProfiler)
Method: as §1

IRAK4(h) = molecular target: T31, IRAK4(h) (Homo sapiens, UniProt Q9NWZ3); settings: read-out: Inhibition(%) @ 1 µM RK-019
T31 construct: purchased Eurofins Discovery Services (KinaseProfiler)
Method: as §1

MST2(h) = molecular target: T32, MST2(h) (Homo sapiens, UniProt Q13188); settings: read-out: Inhibition(%) @ 1 µM RK-019
T32 construct: purchased Eurofins Discovery Services (KinaseProfiler)
Method: as §1

PAK5(h) = molecular target: T33, PAK5(h) (Homo sapiens, UniProt Q9P286); settings: read-out: Inhibition(%) @ 1 µM RK-019
T33 construct: purchased Eurofins Discovery Services (KinaseProfiler)
Method: as §1

PI3KC2g(h) = molecular target: T34, PI3KC2g(h) (Homo sapiens, UniProt O75747); settings: read-out: Inhibition(%) @ 1 µM RK-019
T34 construct: purchased Eurofins Discovery Services (KinaseProfiler)
Method: as §1

EphA8(h) = molecular target: T35, EphA8(h) (Homo sapiens, UniProt P29322); settings: read-out: Inhibition(%) @ 1 µM RK-019
T35 construct: purchased Eurofins Discovery Services (KinaseProfiler)
Method: as §1

JAK3(h) = molecular target: T36, JAK3(h) (Homo sapiens, UniProt P52333); settings: read-out: Inhibition(%) @ 1 µM RK-019
T36 construct: purchased Eurofins Discovery Services (KinaseProfiler)
Method: as §1

T26 sequence (P35916 25-1363): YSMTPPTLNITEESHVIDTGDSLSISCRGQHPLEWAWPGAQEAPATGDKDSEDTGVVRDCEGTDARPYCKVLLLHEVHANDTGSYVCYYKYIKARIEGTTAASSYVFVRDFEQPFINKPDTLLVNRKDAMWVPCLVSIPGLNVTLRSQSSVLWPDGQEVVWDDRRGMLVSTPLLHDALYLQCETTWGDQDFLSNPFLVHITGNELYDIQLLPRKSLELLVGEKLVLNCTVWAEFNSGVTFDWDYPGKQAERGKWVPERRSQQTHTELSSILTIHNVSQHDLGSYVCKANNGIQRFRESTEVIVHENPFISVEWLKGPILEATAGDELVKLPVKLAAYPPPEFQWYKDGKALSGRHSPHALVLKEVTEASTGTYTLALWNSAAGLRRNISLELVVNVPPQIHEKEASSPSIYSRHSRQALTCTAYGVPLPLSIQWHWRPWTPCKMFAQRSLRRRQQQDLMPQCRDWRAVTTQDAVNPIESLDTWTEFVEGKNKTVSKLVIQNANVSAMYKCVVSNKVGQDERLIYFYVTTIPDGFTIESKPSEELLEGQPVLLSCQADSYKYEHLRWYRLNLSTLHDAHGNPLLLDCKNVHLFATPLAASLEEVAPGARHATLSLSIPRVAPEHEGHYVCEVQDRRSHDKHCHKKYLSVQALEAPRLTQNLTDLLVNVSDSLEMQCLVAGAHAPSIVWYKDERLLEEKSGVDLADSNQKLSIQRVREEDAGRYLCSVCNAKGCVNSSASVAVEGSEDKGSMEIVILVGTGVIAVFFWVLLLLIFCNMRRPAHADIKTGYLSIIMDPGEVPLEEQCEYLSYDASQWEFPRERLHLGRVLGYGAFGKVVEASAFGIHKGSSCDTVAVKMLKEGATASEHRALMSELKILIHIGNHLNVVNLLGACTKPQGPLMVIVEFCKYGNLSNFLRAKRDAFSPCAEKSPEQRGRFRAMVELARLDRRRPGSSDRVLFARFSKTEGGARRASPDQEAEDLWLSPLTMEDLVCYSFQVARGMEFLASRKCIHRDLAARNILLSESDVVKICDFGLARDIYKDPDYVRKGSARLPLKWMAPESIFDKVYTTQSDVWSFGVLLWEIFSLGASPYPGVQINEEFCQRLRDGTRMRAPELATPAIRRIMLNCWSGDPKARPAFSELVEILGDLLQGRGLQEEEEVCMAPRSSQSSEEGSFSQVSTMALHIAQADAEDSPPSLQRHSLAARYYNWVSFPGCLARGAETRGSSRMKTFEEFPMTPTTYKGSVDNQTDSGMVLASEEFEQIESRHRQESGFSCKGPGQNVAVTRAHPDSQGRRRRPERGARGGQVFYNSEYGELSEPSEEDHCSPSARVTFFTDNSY
T9 sequence (P35626 whole entry): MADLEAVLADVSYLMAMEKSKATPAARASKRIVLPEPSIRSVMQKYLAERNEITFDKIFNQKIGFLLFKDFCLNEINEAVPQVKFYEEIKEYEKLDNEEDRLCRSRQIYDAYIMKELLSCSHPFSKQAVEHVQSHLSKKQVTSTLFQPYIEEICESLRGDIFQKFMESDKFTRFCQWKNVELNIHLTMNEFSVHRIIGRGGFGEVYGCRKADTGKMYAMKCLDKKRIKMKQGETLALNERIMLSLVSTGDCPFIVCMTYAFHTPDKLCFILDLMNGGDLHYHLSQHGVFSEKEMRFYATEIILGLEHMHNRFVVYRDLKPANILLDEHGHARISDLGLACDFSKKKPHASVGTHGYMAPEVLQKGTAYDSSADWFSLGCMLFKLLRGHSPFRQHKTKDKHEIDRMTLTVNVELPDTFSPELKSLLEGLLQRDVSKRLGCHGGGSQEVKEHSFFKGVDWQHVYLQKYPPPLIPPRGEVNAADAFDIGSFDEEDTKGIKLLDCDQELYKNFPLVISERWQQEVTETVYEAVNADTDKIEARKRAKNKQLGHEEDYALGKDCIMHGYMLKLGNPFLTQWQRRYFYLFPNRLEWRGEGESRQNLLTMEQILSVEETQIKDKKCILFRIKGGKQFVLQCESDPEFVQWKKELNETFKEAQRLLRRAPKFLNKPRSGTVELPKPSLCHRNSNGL
T23 sequence (Q9NQU5 whole entry): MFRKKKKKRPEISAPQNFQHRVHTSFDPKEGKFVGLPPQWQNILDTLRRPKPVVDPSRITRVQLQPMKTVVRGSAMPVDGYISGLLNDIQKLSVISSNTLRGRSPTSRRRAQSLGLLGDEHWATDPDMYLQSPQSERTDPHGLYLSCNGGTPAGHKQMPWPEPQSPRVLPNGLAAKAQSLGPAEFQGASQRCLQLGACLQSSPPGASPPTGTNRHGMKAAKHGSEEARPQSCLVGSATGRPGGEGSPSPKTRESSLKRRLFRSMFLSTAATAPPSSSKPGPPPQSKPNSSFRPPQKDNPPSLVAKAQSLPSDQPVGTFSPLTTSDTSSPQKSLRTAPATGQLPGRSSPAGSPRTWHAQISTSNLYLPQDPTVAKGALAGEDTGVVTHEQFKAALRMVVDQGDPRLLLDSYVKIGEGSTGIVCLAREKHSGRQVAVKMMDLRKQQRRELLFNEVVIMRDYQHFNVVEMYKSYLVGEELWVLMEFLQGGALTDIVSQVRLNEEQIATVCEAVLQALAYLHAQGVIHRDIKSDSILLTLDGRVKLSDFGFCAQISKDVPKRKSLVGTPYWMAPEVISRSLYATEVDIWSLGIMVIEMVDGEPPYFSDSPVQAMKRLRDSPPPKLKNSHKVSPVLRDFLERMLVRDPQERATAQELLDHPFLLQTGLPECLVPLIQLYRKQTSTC
T28 sequence (O00141 whole entry): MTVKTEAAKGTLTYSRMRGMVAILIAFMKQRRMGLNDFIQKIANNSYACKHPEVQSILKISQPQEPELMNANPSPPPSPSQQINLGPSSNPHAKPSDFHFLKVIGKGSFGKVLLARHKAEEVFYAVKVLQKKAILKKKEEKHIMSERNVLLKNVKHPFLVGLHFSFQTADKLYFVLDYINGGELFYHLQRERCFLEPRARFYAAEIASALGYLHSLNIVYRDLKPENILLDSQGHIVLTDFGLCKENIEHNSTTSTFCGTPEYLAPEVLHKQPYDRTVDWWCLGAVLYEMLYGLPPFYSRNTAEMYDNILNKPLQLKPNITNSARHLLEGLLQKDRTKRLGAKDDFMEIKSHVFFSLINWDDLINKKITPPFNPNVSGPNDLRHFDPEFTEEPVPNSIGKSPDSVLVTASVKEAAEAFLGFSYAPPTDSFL
T24 sequence (P10721 26-976 D816H): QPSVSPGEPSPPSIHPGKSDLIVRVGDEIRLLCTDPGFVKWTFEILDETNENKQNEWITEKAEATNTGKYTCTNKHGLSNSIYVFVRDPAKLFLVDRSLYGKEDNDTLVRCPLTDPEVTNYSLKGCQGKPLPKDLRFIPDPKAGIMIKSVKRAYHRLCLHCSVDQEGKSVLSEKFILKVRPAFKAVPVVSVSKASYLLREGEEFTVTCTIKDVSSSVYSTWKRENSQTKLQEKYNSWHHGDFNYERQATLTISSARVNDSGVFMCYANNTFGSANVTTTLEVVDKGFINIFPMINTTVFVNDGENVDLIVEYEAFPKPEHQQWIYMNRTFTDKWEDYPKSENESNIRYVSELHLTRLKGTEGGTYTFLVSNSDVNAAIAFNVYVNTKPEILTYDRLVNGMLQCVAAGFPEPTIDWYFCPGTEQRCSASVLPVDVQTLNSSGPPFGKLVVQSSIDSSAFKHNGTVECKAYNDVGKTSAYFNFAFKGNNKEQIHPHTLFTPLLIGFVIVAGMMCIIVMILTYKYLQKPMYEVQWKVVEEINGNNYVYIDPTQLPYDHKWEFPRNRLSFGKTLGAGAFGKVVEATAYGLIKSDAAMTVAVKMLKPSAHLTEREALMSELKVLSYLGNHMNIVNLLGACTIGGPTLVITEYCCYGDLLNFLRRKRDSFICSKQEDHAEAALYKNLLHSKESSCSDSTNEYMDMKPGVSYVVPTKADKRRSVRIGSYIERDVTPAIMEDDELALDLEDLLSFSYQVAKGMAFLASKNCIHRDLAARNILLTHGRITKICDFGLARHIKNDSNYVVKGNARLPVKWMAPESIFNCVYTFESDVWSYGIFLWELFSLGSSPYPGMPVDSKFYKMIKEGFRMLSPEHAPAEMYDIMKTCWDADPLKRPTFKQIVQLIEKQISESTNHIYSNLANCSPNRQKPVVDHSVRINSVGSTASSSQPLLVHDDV
T6 sequence (Q9UKI8 whole entry): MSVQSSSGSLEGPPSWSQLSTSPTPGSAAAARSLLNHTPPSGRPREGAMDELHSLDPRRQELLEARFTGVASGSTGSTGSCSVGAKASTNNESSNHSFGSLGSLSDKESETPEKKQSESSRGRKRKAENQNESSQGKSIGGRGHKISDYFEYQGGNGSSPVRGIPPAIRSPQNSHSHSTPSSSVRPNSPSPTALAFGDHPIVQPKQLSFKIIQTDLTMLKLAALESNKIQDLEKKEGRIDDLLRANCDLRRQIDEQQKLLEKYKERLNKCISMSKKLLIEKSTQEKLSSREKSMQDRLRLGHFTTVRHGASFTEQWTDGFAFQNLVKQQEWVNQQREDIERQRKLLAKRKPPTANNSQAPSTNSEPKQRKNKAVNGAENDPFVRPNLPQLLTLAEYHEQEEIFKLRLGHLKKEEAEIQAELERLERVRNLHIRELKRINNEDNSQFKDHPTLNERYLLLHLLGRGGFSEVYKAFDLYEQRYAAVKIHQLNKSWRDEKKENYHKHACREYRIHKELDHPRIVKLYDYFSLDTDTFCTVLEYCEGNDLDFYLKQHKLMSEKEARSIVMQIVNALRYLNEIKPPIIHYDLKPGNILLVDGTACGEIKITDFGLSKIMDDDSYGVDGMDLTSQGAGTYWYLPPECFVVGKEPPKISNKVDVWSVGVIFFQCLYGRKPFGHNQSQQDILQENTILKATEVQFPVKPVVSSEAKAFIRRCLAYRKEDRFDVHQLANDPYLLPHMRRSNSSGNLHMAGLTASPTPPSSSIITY

`COc1cc(OC)cc(N(CCN[C@H](C)CO)c2ccc3ncc(-c4cnn(C)c4)c(=O)n3c2)c1` [RK-019, (R)-7-((3,5-dimethoxyphenyl) (2-((1-hydroxypropan-2-yl)amino)ethyl)amino)-3-(1-methyl-1H-pyrazol-4-yl)-4H-pyrido [1,2-a]pyrimidin-4-one] gave an activity at 1 µM (PKBβ(h)) of 84%, an activity at 1 µM (TrkB(h)) of 94% and an activity at 1 µM (Hck(h) activated) of 60%. For the same compound, the activity at 1 µM (PhKγ2(h)) was 88%, the activity at 1 µM (ALK(h)) was 85% and the activity at 1 µM (TLK1(h)) was 98%. The activity at 1 µM (MAPK2(m)) was 109%, the activity at 1 µM (PDGFRβ(h)) was 54% and the activity at 1 µM (GRK3(h)) was 123%. For the same compound, the activity at 1 µM (GCN2(h)) was 134%, the activity at 1 µM (MKK4(m)) was 107% and the activity at 1 µM [1] was 100%. The activity at 1 µM [2] was 102%, the activity at 1 µM (DRAK1(h)) was 95% and the activity at 1 µM (TYK2(h)) was 96%. It also gave an activity at 1 µM (PKCη(h)) of 108%, an activity at 1 µM (Src(T341M)(h)) of 98% and an activity at 1 µM (PDGFRα(h)) of 50%. It also gave an activity at 1 µM (NEK1(h)) of 52%, an activity at 1 µM (DYRK3(h)) of 88% and an activity at 1 µM (TNIK(h)) of 42%. The activity at 1 µM (Abl(Y253F)(h)) was 54%, the activity at 1 µM (PAK6(h)) was 96% and the activity at 1 µM (cKit(D816H)(h)) was 58%. It also gave an activity at 1 µM (Syk(h)) of 116%, an inhibition at 1 µM (Flt4(h); FLT4, 1 µM, read-out: inhibition (hit in panel)) greater than 90% and an activity at 1 µM (Flt4(h); Flt4(h), read-out: Inhibition(%) @ 1 µM RK-019) of 3%. The activity at 1 µM (MLCK(h)) was 92%, the activity at 1 µM (SGK(h)) was 104% and the activity at 1 µM (GRK7(h)) was 108%. It also gave an activity at 1 µM (Fer(h)) of 127%, an activity at 1 µM (IRAK4(h)) of 100% and an activity at 1 µM (MST2(h)) of 97%. For the same compound, the activity at 1 µM (PAK5(h)) was 101%, the activity at 1 µM (PI3KC2g(h)) was 102% and the activity at 1 µM (EphA8(h)) was 59%. The activity at 1 µM (JAK3(h)) was 97%.
